Measurements reported in ChEMBL document CHEMBL4699517 (Bioorg Med Chem Lett, 2020).
Calls of active or inactive are those of the source. The calls are words filed in the database; no cut-off is given here.

Columns and labels:
Type in all cases: cell-based
[1] = target: Phosphatidylinositol 4,5-bisphosphate 3-kinase catalytic subunit gamma isoform (Homo sapiens) (UniProt P48736); experiment: Inhibition of PI3Kgamma in human Raji cells assessed as inhibition of cell viability at 100 nM after 72 hrs by CellTiter-Glo luminescence assay
Chain of Phosphatidylinositol 4,5-bisphosphate 3-kinase catalytic subunit gamma isoform (Homo sapiens) (P48736 whole entry, looked up, canonical isoform): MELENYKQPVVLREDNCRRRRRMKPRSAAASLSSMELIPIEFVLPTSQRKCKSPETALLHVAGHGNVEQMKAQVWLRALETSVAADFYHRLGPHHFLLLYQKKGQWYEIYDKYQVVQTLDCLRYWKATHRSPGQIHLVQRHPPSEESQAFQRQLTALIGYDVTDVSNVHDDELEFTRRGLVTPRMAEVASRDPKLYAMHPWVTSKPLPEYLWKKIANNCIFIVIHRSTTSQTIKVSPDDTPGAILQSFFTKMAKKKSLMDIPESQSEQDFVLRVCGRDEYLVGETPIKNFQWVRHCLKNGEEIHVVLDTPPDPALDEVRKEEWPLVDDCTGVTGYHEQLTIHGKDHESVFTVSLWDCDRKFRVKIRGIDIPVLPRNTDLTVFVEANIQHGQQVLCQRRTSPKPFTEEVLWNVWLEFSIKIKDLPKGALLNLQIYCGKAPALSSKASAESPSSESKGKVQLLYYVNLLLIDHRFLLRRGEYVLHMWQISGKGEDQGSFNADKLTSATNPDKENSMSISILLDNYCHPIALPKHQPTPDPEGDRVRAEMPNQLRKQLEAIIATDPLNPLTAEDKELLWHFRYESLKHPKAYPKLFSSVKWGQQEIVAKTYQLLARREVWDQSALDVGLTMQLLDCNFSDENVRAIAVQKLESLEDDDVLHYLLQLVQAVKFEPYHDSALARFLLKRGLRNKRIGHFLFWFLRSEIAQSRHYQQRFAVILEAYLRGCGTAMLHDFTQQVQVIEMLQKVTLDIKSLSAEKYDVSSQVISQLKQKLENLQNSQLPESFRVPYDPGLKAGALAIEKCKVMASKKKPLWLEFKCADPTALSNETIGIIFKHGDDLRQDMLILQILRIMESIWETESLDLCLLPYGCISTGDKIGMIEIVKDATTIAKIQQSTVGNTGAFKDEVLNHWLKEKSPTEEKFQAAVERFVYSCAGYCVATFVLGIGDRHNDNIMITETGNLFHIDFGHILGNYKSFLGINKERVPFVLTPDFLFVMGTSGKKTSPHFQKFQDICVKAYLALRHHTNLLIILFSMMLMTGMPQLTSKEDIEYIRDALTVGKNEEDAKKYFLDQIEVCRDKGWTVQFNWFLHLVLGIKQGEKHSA

[2] = target: Phosphatidylinositol 4,5-bisphosphate 3-kinase catalytic subunit gamma isoform (Homo sapiens) (UniProt P48736); experiment: Inhibition of PI3Kgamma in human SUDHL-10 cells assessed as inhibition of cell viability at 100 nM after 72 hrs by CellTiter-Glo luminescent assay; details: SU-DHL-10
[3] = target: Phosphatidylinositol 4,5-bisphosphate 3-kinase catalytic subunit gamma isoform (Homo sapiens) (UniProt P48736); experiment: Inhibition of PI3Kgamma in human MOLT-4 cells assessed as inhibition of cell viability at 100 nM after 72 hrs by CellTiter-Glo luminescent assay
[4] = target: Phosphatidylinositol 4,5-bisphosphate 3-kinase catalytic subunit gamma isoform (Homo sapiens) (UniProt P48736); experiment: Inhibition of PI3Kgamma in human LCL-1 cells assessed as inhibition of cell viability at 100 nM after 72 hrs by CellTiter-Glo luminescent assay
[5] = target: Phosphatidylinositol 4,5-bisphosphate 3-kinase catalytic subunit gamma isoform (Homo sapiens) (UniProt P48736); experiment: Inhibition of PI3Kgamma in human RPMI-8226 cells assessed as inhibition of cell viability at 100 nM after 72 hrs by CellTiter-Glo luminescent assay
[6] = target: Phosphatidylinositol 4,5-bisphosphate 3-kinase catalytic subunit gamma isoform (Homo sapiens) (UniProt P48736); experiment: Inhibition of PI3Kgamma in human SUDHL-6 cells assessed as inhibition of cell viability at 100 nM after 72 hrs by CellTiter-Glo luminescent assay; details: SU-DHL-6

Compound: COC(=O)[C@@]12OC[C@]34[C@H]([C@@H](O)[C@@H]1O)[C@@]1(C)CC(=O)C(OCC(=O)NC(Cc5ccccc5)C(=O)OC(C)(C)C)=C(C)[C@@H]1C[C@H]3OC(=O)[C@H](OC(=O)C=C(C)C)[C@@H]24 (some centres undefined)
- inhibition [1]: inactive

Compound: CC[C@H](C)[C@H](NC(=O)OC(C)(C)C)C(=O)OC1=C(C)[C@@H]2C[C@H]3OC(=O)[C@H](OC(=O)C=C(C)C)[C@H]4[C@]5(C(=O)OC)OC[C@]34[C@H]([C@@H](O)[C@@H]5O)[C@@]2(C)CC1=O
- inhibition [1]: inactive

Compound: COC(=O)[C@@]12OC[C@]34[C@H]([C@@H](O)[C@@H]1O)[C@@]1(C)CC(=O)C(OCC(=O)NC(C)(C)C)=C(C)[C@@H]1C[C@H]3OC(=O)[C@H](OC(=O)C=C(C)C)[C@@H]24
- inhibition [1]: inactive

Compound: COC(=O)[C@@]12OC[C@]34[C@H]([C@@H](O)[C@@H]1O)[C@@]1(C)CC(=O)C(OCC(N)=O)=C(C)[C@@H]1C[C@H]3OC(=O)[C@H](OC(=O)C=C(C)C)[C@@H]24
- inhibition [1]: inactive

Compound: COC(=O)[C@@]12OC[C@]34[C@H]([C@@H](O)[C@@H]1O)[C@@]1(C)CC(=O)C(OC(=O)CN)=C(C)[C@@H]1C[C@H]3OC(=O)[C@H](OC(=O)C=C(C)C)[C@@H]24
- inhibition [1]: Active

Compound: COC(=O)[C@@]12OC[C@]34[C@H]([C@@H](O)[C@@H]1O)[C@@]1(C)CC(=O)C(OC(=O)C[C@@H](N)C(F)(F)F)=C(C)[C@@H]1C[C@H]3OC(=O)[C@H](OC(=O)C=C(C)C)[C@@H]24
- inhibition [1]: inactive

Compound: COC(=O)[C@@]12OC[C@]34[C@H]([C@@H](O)[C@@H]1O)[C@@]1(C)CC(=O)C(OC(=O)C[C@H](C)NC(C)=O)=C(C)[C@@H]1C[C@H]3OC(=O)[C@H](OC(=O)C=C(C)C)[C@@H]24
- inhibition [2]: Active
- inhibition [1]: Active
- inhibition [3]: Active
- inhibition [4]: Active
- inhibition [5]: Active
- inhibition [6]: Active

Compound: COC(=O)[C@@]12OC[C@]34[C@H]([C@@H](O)[C@@H]1O)[C@@]1(C)CC(=O)C(OC(=O)CNC(=O)CN)=C(C)[C@@H]1C[C@H]3OC(=O)[C@H](OC(=O)C=C(C)C)[C@@H]24
- inhibition [2]: Active
- inhibition [1]: Active
- inhibition [3]: Active
- inhibition [4]: Active
- inhibition [5]: Active
- inhibition [6]: Active

Compound: COC(=O)[C@@]12OC[C@]34[C@H]([C@@H](O)[C@@H]1O)[C@@]1(C)CC(=O)C(OC(=O)C[C@@H](N)C5CC5)=C(C)[C@@H]1C[C@H]3OC(=O)[C@H](OC(=O)C=C(C)C)[C@@H]24
- inhibition [1]: inactive

Compound: COC(=O)[C@@]12OC[C@]34[C@H]([C@@H](O)[C@@H]1O)[C@@]1(C)CC(=O)C(OC(=O)[C@@H]5CCCN5)=C(C)[C@@H]1C[C@H]3OC(=O)[C@H](OC(=O)C=C(C)C)[C@@H]24
- inhibition [1]: Active

Compound: COC(=O)[C@@]12OC[C@]34[C@H]([C@@H](O)[C@@H]1O)[C@@]1(C)CC(=O)C(OC(=O)CNC(=O)CNC(=O)CN)=C(C)[C@@H]1C[C@H]3OC(=O)[C@H](OC(=O)C=C(C)C)[C@@H]24
- inhibition [2]: Active
- inhibition [1]: Active
- inhibition [3]: Active
- inhibition [4]: Active
- inhibition [5]: Active
- inhibition [6]: Active

Compound: COC(=O)[C@@]12OC[C@]34[C@H]([C@@H](O)[C@@H]1O)[C@@]1(C)CC(=O)C(OC(=O)C[C@H](C)NC(=O)OC(C)(C)C)=C(C)[C@@H]1C[C@H]3OC(=O)[C@H](OC(=O)C=C(C)C)[C@@H]24
- inhibition [1]: inactive

Compound: COC(=O)[C@@]12OC[C@]34[C@H]([C@@H](O)[C@@H]1O)[C@@]1(C)CC(=O)C(OC(=O)C[C@H](C)NS(C)(=O)=O)=C(C)[C@@H]1C[C@H]3OC(=O)[C@H](OC(=O)C=C(C)C)[C@@H]24
- inhibition [1]: inactive

Compound: COC(=O)[C@@]12OC[C@]34[C@H]([C@@H](O)[C@@H]1O)[C@@]1(C)CC(=O)C(OC(=O)C[C@@H](N)C(C)C)=C(C)[C@@H]1C[C@H]3OC(=O)[C@H](OC(=O)C=C(C)C)[C@@H]24
- inhibition [1]: inactive

Compound: COC(=O)[C@@]12OC[C@]34[C@H]([C@@H](O)[C@@H]1O)[C@@]1(C)CC(=O)C(OCC(=O)C5CC5)=C(C)[C@@H]1C[C@H]3OC(=O)[C@H](OC(=O)C=C(C)C)[C@@H]24
- inhibition [1]: inactive

Compound: COC(=O)[C@@]12OC[C@]34[C@H]([C@@H](O)[C@@H]1O)[C@@]1(C)CC(=O)C(OC(=O)[C@H](C)NC(=O)[C@H](C)N)=C(C)[C@@H]1C[C@H]3OC(=O)[C@H](OC(=O)C=C(C)C)[C@@H]24
- inhibition [2]: inactive
- inhibition [1]: inactive
- inhibition [3]: inactive
- inhibition [4]: inactive
- inhibition [5]: inactive
- inhibition [6]: inactive

Compound: COC(=O)[C@@]12OC[C@]34[C@H]([C@@H](O)[C@@H]1O)[C@@]1(C)CC(=O)C(OC(=O)[C@H](CC(C)C)NC(=O)OC(C)(C)C)=C(C)[C@@H]1C[C@H]3OC(=O)[C@H](OC(=O)C=C(C)C)[C@@H]24
- inhibition [1]: inactive

Compound: COC(=O)[C@@]12OC[C@]34[C@H]([C@@H](O)[C@@H]1O)[C@@]1(C)CC(=O)C(OCC(=O)NCCC(=O)OC(C)(C)C)=C(C)[C@@H]1C[C@H]3OC(=O)[C@H](OC(=O)C=C(C)C)[C@@H]24
- inhibition [1]: inactive

Compound: COC(=O)[C@@]12OC[C@]34[C@H]([C@@H](O)[C@@H]1O)[C@@]1(C)CC(=O)C(OCC(=O)C(C)(C)C)=C(C)[C@@H]1C[C@H]3OC(=O)[C@H](OC(=O)C=C(C)C)[C@@H]24
- inhibition [1]: inactive

Compound: COC(=O)[C@@]12OC[C@]34[C@H]([C@@H](O)[C@@H]1O)[C@@]1(C)CC(=O)C(OC(=O)[C@@H](NC(=O)OC(C)(C)C)C(C)C)=C(C)[C@@H]1C[C@H]3OC(=O)[C@H](OC(=O)C=C(C)C)[C@@H]24
- inhibition [1]: inactive

Compound: COC(=O)[C@@]12OC[C@]34[C@H]([C@@H](O)[C@@H]1O)[C@@]1(C)CC(=O)C(OC(=O)[C@@H](C)N)=C(C)[C@@H]1C[C@H]3OC(=O)[C@H](OC(=O)C=C(C)C)[C@@H]24
- inhibition [2]: Active
- inhibition [1]: Active
- inhibition [3]: Active
- inhibition [4]: Active
- inhibition [5]: Active
- inhibition [6]: Active

Compound: COC(=O)[C@@]12OC[C@]34[C@H]([C@@H](O)[C@@H]1O)[C@@]1(C)CC(=O)C(OC(=O)[C@H](C)N)=C(C)[C@@H]1C[C@H]3OC(=O)[C@H](OC(=O)C=C(C)C)[C@@H]24
- inhibition [1]: Active

Compound: COC(=O)[C@@]12OC[C@]34[C@H]([C@@H](O)[C@@H]1O)[C@@]1(C)CC(=O)C(OC(=O)[C@H](C)NC(=O)OC(C)(C)C)=C(C)[C@@H]1C[C@H]3OC(=O)[C@H](OC(=O)C=C(C)C)[C@@H]24
- inhibition [1]: Active

Compound: COC(=O)[C@@]12OC[C@]34[C@H]([C@@H](O)[C@@H]1O)[C@@]1(C)CC(=O)C(OCC(=O)NC(Cc5ccccc5)C(=O)O)=C(C)[C@@H]1C[C@H]3OC(=O)[C@H](OC(=O)C=C(C)C)[C@@H]24 (some centres undefined)
- inhibition [1]: inactive

Compound: COC(=O)[C@@]12OC[C@]34[C@H]([C@@H](O)[C@@H]1O)[C@@]1(C)CC(=O)C(OCC(=O)NCCC(=O)O)=C(C)[C@@H]1C[C@H]3OC(=O)[C@H](OC(=O)C=C(C)C)[C@@H]24
- inhibition [1]: inactive

Compound: COC(=O)[C@@]12OC[C@]34[C@H]([C@@H](O)[C@@H]1O)[C@@]1(C)CC(=O)C(OC(=O)C[C@@H](C)N)=C(C)[C@@H]1C[C@H]3OC(=O)[C@H](OC(=O)C=C(C)C)[C@@H]24
- inhibition [2]: Active
- inhibition [1]: Active
- inhibition [3]: Active
- inhibition [4]: Active
- inhibition [5]: Active
- inhibition [6]: Active

Compound: COC(=O)COC1=C(C)[C@@H]2C[C@H]3OC(=O)[C@H](OC(=O)C=C(C)C)[C@H]4[C@]5(C(=O)OC)OC[C@]34[C@H]([C@@H](O)[C@@H]5O)[C@@]2(C)CC1=O
- inhibition [1]: inactive

Compound: COC(=O)[C@@]12OC[C@]34[C@H]([C@@H](O)[C@@H]1O)[C@@]1(C)CC(=O)C(OC(=O)[C@@H]5CC(F)(F)CN5)=C(C)[C@@H]1C[C@H]3OC(=O)[C@H](OC(=O)C=C(C)C)[C@@H]24
- inhibition [2]: Active
- inhibition [1]: Active
- inhibition [3]: Active
- inhibition [4]: Active
- inhibition [5]: Active
- inhibition [6]: Active

Compound: COC(=O)[C@@]12OC[C@]34[C@H]([C@@H](O)[C@@H]1O)[C@@]1(C)CC(=O)C(OC(=O)[C@@H](N)CC(C)C)=C(C)[C@@H]1C[C@H]3OC(=O)[C@H](OC(=O)C=C(C)C)[C@@H]24
- inhibition [1]: Active

Compound: COC(=O)[C@@]12OC[C@]34[C@H]([C@@H](O)[C@@H]1O)[C@@]1(C)CC(=O)C(OC(=O)[C@H]5CCCN5)=C(C)[C@@H]1C[C@H]3OC(=O)[C@H](OC(=O)C=C(C)C)[C@@H]24
- inhibition [2]: Active
- inhibition [1]: Active
- inhibition [3]: Active
- inhibition [4]: Active
- inhibition [5]: Active
- inhibition [6]: Active

Compound: COC(=O)[C@@]12OC[C@]34[C@H]([C@@H](O)[C@@H]1O)[C@@]1(C)CC(=O)C(OC(=O)C[C@H](C)NC(=O)C[C@H](C)N)=C(C)[C@@H]1C[C@H]3OC(=O)[C@H](OC(=O)C=C(C)C)[C@@H]24
- inhibition [2]: Active
- inhibition [1]: Active
- inhibition [3]: Active
- inhibition [4]: Active
- inhibition [5]: Active
- inhibition [6]: Active

Compound: COC(=O)[C@@]12OC[C@]34[C@H]([C@@H](O)[C@@H]1O)[C@@]1(C)CC(=O)C(OC(=O)[C@@H](N)C(C)C)=C(C)[C@@H]1C[C@H]3OC(=O)[C@H](OC(=O)C=C(C)C)[C@@H]24
- inhibition [1]: Active

Compound: CC[C@H](C)[C@H](N)C(=O)OC1=C(C)[C@@H]2C[C@H]3OC(=O)[C@H](OC(=O)C=C(C)C)[C@H]4[C@]5(C(=O)OC)OC[C@]34[C@H]([C@@H](O)[C@@H]5O)[C@@]2(C)CC1=O
- inhibition [1]: Active

Compound: COC(=O)[C@@]12OC[C@]34[C@H]([C@@H](O)[C@@H]1O)[C@@]1(C)CC(=O)C(OC(=O)[C@@H]5CCCN5C(=O)OC(C)(C)C)=C(C)[C@@H]1C[C@H]3OC(=O)[C@H](OC(=O)C=C(C)C)[C@@H]24
- inhibition [1]: Active
